The term EC50 denotes the concentration that produces a half-maximal response.

Like-named read-outs stand apart in the source and are kept apart here. Bridge positions count the residues as written; N and C are the ends. Ends that are not written are not given here. Peptide text beside a SMILES is read from it.

Consider nine compounds from patent US7928060B2, “Amylin family polypeptide-6 (AFP-6) analogs and methods of making and using them” (Amylin Pharmaceuticals, Inc., priority 2004, dated 2011).

For one assay, the target named is T1, amylin receptors (Rattus norvegicus, UniProt P32214).
T1 construct: This basal forebrain tissue, containing the nucleus accumbens and surrounding regions, was weighed and homogenized; from tissue; host or cells: rat basal forebrain (nucleus accumbens) membranes, male Sprague-Dawley rats
T1 sequence (P32214 25-516): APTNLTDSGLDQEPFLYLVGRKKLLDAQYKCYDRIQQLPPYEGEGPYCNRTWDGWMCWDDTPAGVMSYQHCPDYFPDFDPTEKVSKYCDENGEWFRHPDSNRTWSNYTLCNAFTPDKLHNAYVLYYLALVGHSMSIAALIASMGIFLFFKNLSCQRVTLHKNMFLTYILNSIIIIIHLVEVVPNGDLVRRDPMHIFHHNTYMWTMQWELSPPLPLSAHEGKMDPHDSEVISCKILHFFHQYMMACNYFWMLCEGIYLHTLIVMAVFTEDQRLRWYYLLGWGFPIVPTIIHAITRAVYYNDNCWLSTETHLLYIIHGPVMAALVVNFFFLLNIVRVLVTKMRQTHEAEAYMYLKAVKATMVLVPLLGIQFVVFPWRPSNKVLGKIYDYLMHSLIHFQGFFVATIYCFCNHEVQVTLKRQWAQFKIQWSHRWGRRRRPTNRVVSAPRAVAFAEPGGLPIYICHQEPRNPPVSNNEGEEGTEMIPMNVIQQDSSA
The experiment in a line: amylin radioligand binding assay (125I-rat amylin, nucleus accumbens membranes). The settings on record: Table 6; read-out: Amylin receptor binding. As to the method: Unlabeled peptides were obtained from BACHEM Inc. (Torrance, Calif.).
Male Sprague-Dawley® rats (200-250) grams were sacrificed by decapitation. Brains were removed and place in cold phosphate-buffered saline (PBS). From the ventral surface, cuts were made rostral to the hypothalamus, bounded laterally by the olfactory tracts and extending at a 45° angle medially from these tracts. […] Membranes were washed three times in fresh buffer by centrifugation for 15 minutes at 48,000×g. The final membrane pellet was resuspended in 20 mM HEPES buffer containing 0.2 mM phenylmethylsulfonyl fluoride (PMSF).
Solutions were incubated for 60 minutes at 2 C. […] Filters were washed immediately before filtration with 5 ml cold PBS, and immediately after filtration with 15 ml cold PBS. […] Competition curves were generated by measuring binding in the presence of 10^−12 to 10^−6 M unlabeled test compound and were analyzed by nonlinear regression using a 4-parameter logistic equation (INPLOT program; […] Software, San Diego, Calif.).

A further assay deals with adrenomedullin receptor (Homo sapiens, UniProt O60895+Q16602). The experiment in a line: adrenomedullin (ADM) receptor binding assay. The settings on record: Table 6.
Assay [1] has as its target T2, calcitonin receptor (Rattus norvegicus, UniProt P32214).
T2 sequence (P32214 25-516): T1 sequence (P32214 25-516)
Kind of assay: calcitonin receptor binding assay (rCalcitonin RBA). The settings on record: Table 6; read-out: CT receptor binding.

Assay [2] relates to calcitonin receptor. Kind of assay: cAMP production in CHO cells (AlphaScreen). The format is cell-based. As to conditions: CHO, 30,000 cells/well.

adrenomedullin receptor, sequence (Q16602 23-461): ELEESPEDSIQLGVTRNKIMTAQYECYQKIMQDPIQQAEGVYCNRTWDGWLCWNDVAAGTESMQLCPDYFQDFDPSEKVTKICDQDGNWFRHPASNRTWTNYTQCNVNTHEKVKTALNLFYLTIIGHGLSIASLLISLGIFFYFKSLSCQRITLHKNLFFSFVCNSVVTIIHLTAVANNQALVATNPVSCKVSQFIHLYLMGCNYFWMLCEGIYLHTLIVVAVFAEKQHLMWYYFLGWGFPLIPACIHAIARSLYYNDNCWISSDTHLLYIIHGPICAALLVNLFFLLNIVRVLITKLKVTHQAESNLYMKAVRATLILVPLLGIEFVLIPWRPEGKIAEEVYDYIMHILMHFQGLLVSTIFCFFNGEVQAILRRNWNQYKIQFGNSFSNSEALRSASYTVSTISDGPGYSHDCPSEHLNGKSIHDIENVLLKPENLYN
adrenomedullin receptor, sequence (O60895 43-175): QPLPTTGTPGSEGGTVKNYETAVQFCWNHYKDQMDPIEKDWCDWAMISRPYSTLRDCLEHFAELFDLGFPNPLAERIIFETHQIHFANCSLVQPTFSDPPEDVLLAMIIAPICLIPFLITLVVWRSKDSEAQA

In the case of `CSCC[C@H](NC(=O)[C@H](CC(C)C)NC(=O)[C@H](CCC(N)=O)NC(=O)[C@H](Cc1c[nH]c2ccccc12)NC(=O)[C@H](CC(C)C)NC(=O)[C@H](CCCNC(=N)N)NC(=O)[C@H](Cc1c[nH]cn1)NC(=O)[C@H](CO)NC(=O)[C@H](CC(C)C)NC(=O)[C@H](CC(N)=O)NC(=O)[C@H](CCC(N)=O)NC(=O)[C@@H](NC(=O)[C@H](CCC(N)=O)NC(=O)[C@@H]1CSSC[C@H](NC(=O)CNC(=O)[C@@H](N)C(C)C)C(=O)N[C@@H](C(C)C)C(=O)N[C@@H](CC(C)C)C(=O)NCC(=O)N[C@@H]([C@@H](C)O)C(=O)N1)C(C)C)C(=O)NCC(=O)N1CCC[C@H]1C(=O)N[C@@H](C)C(=O)NCC(=O)N[C@@H](CCCNC(=N)N)C(=O)N[C@@H](CCC(N)=O)C(=O)N[C@@H](CC(=O)O)C(=O)N[C@@H](CO)C(=O)N[C@@H](C)C(=O)N1CCC[C@H]1C(=O)N[C@H](C(=O)N[C@@H](CC(=O)O)C(=O)N1CCC[C@H]1C(=O)N[C@@H](CO)C(=O)N[C@@H](CO)C(=O)N1CCC[C@H]1C(=O)N[C@@H](Cc1c[nH]cn1)C(=O)N[C@@H](CO)C(=O)N[C@@H](Cc1ccc(O)cc1)C(N)=O)C(C)C` [compound 2], the IC50 on amylin receptors worked out at 12 nM; at adrenomedullin receptor, 6.4 nM; on calcitonin receptor [1], 24 nM.

In the case of `CSCC[C@H](NC(=O)[C@H](CC(C)C)NC(=O)[C@H](CCC(N)=O)NC(=O)[C@H](Cc1c[nH]c2ccccc12)NC(=O)[C@H](CC(C)C)NC(=O)[C@H](CCCNC(=N)N)NC(=O)[C@H](Cc1c[nH]cn1)NC(=O)[C@H](CO)NC(=O)[C@H](CC(C)C)NC(=O)[C@H](CC(N)=O)NC(=O)[C@H](CCC(N)=O)NC(=O)[C@@H](NC(=O)[C@H](CCC(N)=O)NC(=O)[C@@H]1CSSC[C@H](NC(=O)CNC(=O)[C@@H](N)C(C)C)C(=O)N[C@@H](C(C)C)C(=O)N[C@@H](CC(C)C)C(=O)NCC(=O)N[C@@H]([C@@H](C)O)C(=O)N1)C(C)C)C(=O)NCC(=O)N1CCC[C@H]1C(=O)N[C@@H](C)C(=O)NCC(=O)N[C@@H](CCCNC(=N)N)C(=O)N[C@@H](CCC(N)=O)C(=O)N[C@@H](CC(=O)O)C(=O)N[C@@H](CO)C(=O)N[C@@H](C)C(=O)N1CCC[C@H]1C(=O)N[C@H](C(=O)N[C@@H](CCC(=O)O)C(=O)N1CCC[C@H]1C(=O)N[C@@H](CO)C(=O)N[C@@H](CO)C(=O)N1CCC[C@H]1C(=O)N[C@@H](Cc1c[nH]cn1)C(=O)N[C@@H](CO)C(=O)N[C@@H](Cc1ccc(O)cc1)C(N)=O)C(C)C` [compound 35] (H-VGCVLGTCQVQNLSHRLWQLMGPAGRQDSAPVEPSSPHSY-NH2; disulfide 3-8 (inferred)), the figures for the IC50 at amylin receptors, on adrenomedullin receptor and on calcitonin receptor [1] were 17 nM, 37 nM and 153 nM, respectively.

For the compound “TQAQLLRVGCVLGTCQVQNLSHRLWQLMGPAGRQESAPVEPSSPHSY-NH2 (disulfide 10-15 (inferred)) [compound 32]”, the IC50 on amylin receptors came to 16 nM; on adrenomedullin receptor it was 7.1 nM.

On to `CC(C)C[C@H](NC(=O)[C@H](CCC(N)=O)NC(=O)[C@H](Cc1c[nH]c2ccccc12)NC(=O)[C@H](CC(C)C)NC(=O)[C@H](CCCNC(=N)N)NC(=O)[C@H](Cc1c[nH]cn1)NC(=O)[C@H](CO)NC(=O)[C@H](CC(C)C)NC(=O)[C@H](CC(N)=O)NC(=O)[C@H](CCC(N)=O)NC(=O)[C@@H](NC(=O)[C@H](CCC(N)=O)NC(=O)[C@@H]1CSSC[C@H](NC(=O)CNC(=O)[C@@H](N)C(C)C)C(=O)N[C@@H](C(C)C)C(=O)N[C@@H](CC(C)C)C(=O)NCC(=O)N[C@@H]([C@@H](C)O)C(=O)N1)C(C)C)C(=O)N[C@@H](CCCNC(=N)N)C(=O)N[C@@H](CCC(N)=O)C(=O)N[C@@H](CC(=O)O)C(=O)N[C@@H](CO)C(=O)N[C@@H](C)C(=O)N1CCC[C@H]1C(=O)N[C@H](C(=O)N[C@@H](CCC(=O)O)C(=O)N1CCC[C@H]1C(=O)N[C@@H](CO)C(=O)N[C@@H](CO)C(=O)N1CCC[C@H]1C(=O)N[C@@H](Cc1c[nH]cn1)C(=O)N[C@@H](CO)C(=O)N[C@@H](Cc1ccc(O)cc1)C(N)=O)C(C)C` [compound 36] (H-VGCVLGTCQVQNLSHRLWQLRQDSAPVEPSSPHSY-NH2; disulfide 3-8 (inferred)), for which the IC50 on amylin receptors was 39 nM; on adrenomedullin receptor, no less than 1000 nM; at calcitonin receptor [1], 198 nM.

With `CC(C)C[C@H](NC(=O)[C@H](CCC(N)=O)NC(=O)[C@H](Cc1c[nH]c2ccccc12)NC(=O)[C@H](CC(C)C)NC(=O)[C@H](CCCNC(=N)N)NC(=O)[C@H](Cc1c[nH]cn1)NC(=O)[C@H](CO)NC(=O)[C@H](CC(C)C)NC(=O)[C@H](CC(N)=O)NC(=O)[C@H](CCC(N)=O)NC(=O)[C@@H](NC(=O)[C@H](CCC(N)=O)NC(=O)[C@@H]1CSSC[C@H](NC(=O)CN)C(=O)N[C@@H](CC(N)=O)C(=O)N[C@@H]([C@@H](C)O)C(=O)N[C@@H](C)C(=O)N[C@@H]([C@@H](C)O)C(=O)N1)C(C)C)C(=O)N[C@@H](CCCNC(=N)N)C(=O)N[C@@H](CCC(N)=O)C(=O)N[C@@H](CC(=O)O)C(=O)N[C@@H](CO)C(=O)N[C@@H](C)C(=O)N1CCC[C@H]1C(=O)N[C@H](C(=O)N[C@@H](CCC(=O)O)C(=O)N1CCC[C@H]1C(=O)N[C@@H](CO)C(=O)N[C@@H](CO)C(=O)N1CCC[C@H]1C(=O)N[C@@H](Cc1c[nH]cn1)C(=O)N[C@@H](CO)C(=O)N[C@@H](Cc1ccc(O)cc1)C(N)=O)C(C)C` [compound 37] (H-GCNTATCQVQNLSHRLWQLRQDSAPVEPSSPHSY-NH2; disulfide 2-7 (inferred); N-terminus assumed), the IC50 at amylin receptors is 39 nM; on adrenomedullin receptor it was no less than 1000 nM; on calcitonin receptor [1] it was 121 nM.

Take `CC[C@H](C)[C@H](NC(=O)[C@H](C)NC(=O)[C@@H](NC(=O)[C@H](CCC(N)=O)NC(=O)[C@@H]1CCCN1C(=O)[C@H](Cc1ccccc1)NC(=O)[C@@H](NC(=O)[C@H](Cc1c[nH]cn1)NC(=O)[C@H](Cc1ccccc1)NC(=O)[C@H](CCCCN)NC(=O)[C@H](CC(N)=O)NC(=O)[C@H](Cc1ccccc1)NC(=O)[C@H](CC(=O)O)NC(=O)[C@H](CCC(N)=O)NC(=O)[C@@H](NC(=O)[C@H](Cc1ccc(O)cc1)NC(=O)[C@@H](NC(=O)CNC(=O)[C@H](CC(C)C)NC(=O)[C@H](CCSC)NC(=O)[C@@H]1CSSC[C@H](N)C(=O)NCC(=O)N[C@@H](CC(N)=O)C(=O)N[C@@H](CC(C)C)C(=O)N[C@@H](CO)C(=O)N[C@@H]([C@@H](C)O)C(=O)N1)[C@@H](C)O)[C@@H](C)O)[C@@H](C)O)[C@@H](C)O)C(=O)NCC(=O)N[C@H](C(=O)NCC(=O)N[C@@H](C)C(=O)N1CCC[C@H]1C(N)=O)C(C)C` [SEQ ID NO: 6]: the 50% effective concentration (EC50) stood at 0.097 nM in the assay with calcitonin receptor [2] (average of three experiments, read-out: Average EC50); 0.077 nM with calcitonin receptor [2] (read-out: Experiment 1 EC50); 0.14 nM with calcitonin receptor [2] (read-out: Experiment 2 EC50); 0.075 nM in the assay on calcitonin receptor [2] (read-out: Experiment 3 EC50).

On to “H-TQAQLLRVGMVLGTMQVQNLSHRLWQLMGPAGRQDSAPVDPSSPHSY-NH2 [compound 25]”, for which the IC50 on adrenomedullin receptor was 120 nM; at calcitonin receptor [1], greater than 1000 nM.

For the compound `CC(C)C[C@@H]1NC(=O)[C@H](CC(N)=O)NC(=O)CNC(=O)[C@@H](NC(=O)CNC(=O)[C@@H](N)C(C)C)CSSC[C@@H](C(=O)N[C@@H](CCC(N)=O)C(=O)N[C@H](C(=O)N[C@@H](CCC(N)=O)C(=O)N[C@@H](CC(N)=O)C(=O)N[C@@H](CC(C)C)C(=O)N[C@@H](CO)C(=O)N[C@@H](Cc2c[nH]cn2)C(=O)N[C@@H](CCCNC(=N)N)C(=O)N[C@@H](CC(C)C)C(=O)N[C@@H](Cc2c[nH]c3ccccc23)C(=O)N[C@@H](CCC(N)=O)C(=O)N[C@@H](CC(C)C)C(=O)N[C@@H](CCCNC(=N)N)C(=O)N[C@@H](CCC(N)=O)C(=O)N[C@@H](CC(=O)O)C(=O)N[C@@H](CO)C(=O)N[C@@H](C)C(=O)N2CCC[C@H]2C(=O)N[C@H](C(=O)N[C@@H](CC(=O)O)C(=O)N2CCC[C@H]2C(=O)N[C@@H](CO)C(=O)N[C@@H](CO)C(=O)N2CCC[C@H]2C(=O)N[C@@H](Cc2c[nH]cn2)C(=O)N[C@@H](CO)C(=O)N[C@@H](Cc2ccc(O)cc2)C(N)=O)C(C)C)C(C)C)NC(=O)[C@H]([C@@H](C)O)NC(=O)[C@H](CO)NC1=O` [compound 29] (H-VGCGNLSTCQVQNLSHRLWQLRQDSAPVDPSSPHSY-NH2; disulfide 3-9 (inferred)), the results for the IC50 on adrenomedullin receptor and on calcitonin receptor [1] were no less than 1000 nM and 9 nM, respectively.

Take “H-TQAQLLRVGCSNLSTCQVQNLSHRLWQLMGPAGRQDSAPVDPSSPHSY-NH2 (disulfide 10-16 (inferred)) [compound 20]”: the IC50 on adrenomedullin receptor came to 36 nM; at calcitonin receptor [1], 16 nM.
